In publication PMC13195669, “GPR3 Ligands Discovered through Combined Virtual and Conformational Biosensor-Based Screening” (Journal of the American Chemical Society, 2026):

Target: T1, GPR3 (Homo sapiens, UniProt P46089)
T1 construct: host or cells: HEK293A, transient
Experiment: FRET/BRET cAMP biosensor in HEK293A cells cotransfected with GPR3
Assay type: cell-based
Conditions: for GPR3-dependent change in cAMP: cAMP biosensor, pcDNA vs GPR3 transfected HEK293A
Description: With the first GPR3 ligands identified by using a conformational readout in our hands, we next wanted to understand whether these compounds could have been detected in a cAMP-based assay, which has been used extensively in the past to screen for GPR3 ligands. We therefore tested rac-VH1/52, VH2/93 and VH3/115 in cells expressing a cAMP biosensor.
3 Effect of rac-VH1/52, VH2/93 and VH3/115 on GPR3-dependent cAMP production. (a–c) Vehicle-corrected BRET changes induced by rac-VH1/52 (a), VH2/93 (b) or VH3/115 (c) in HEK293A cells transiently transfected with a cAMP BRET sensor along with pcDNA or GPR3. […] Statistical significance was tested using Two-Way ANOVA followed by Sidak multiple comparison (*: […]; **: p < 0.01). […]
Plasmids and molecular cloning
The H187-EPAC-FRET sensor7 was kindly provided by K. Jalink (The Netherlands Cancer Institute, Amsterdam, The Nether-lands). The BRET-based cAMP sensor CAMYEL8 was kindly provided by Laura Humphrys (University of Regensburg, Regens-burg, Germany). Plasmids encoding the conformational biosensors α2AAR- and β2AR-HaloTag/Nluc9 and the Gs heterotrimer dissociation sensor10 were previously described. The expression plasmid encoding N-terminally HA-tagged GPR3 (cat. no.
#GPR003TN00) on a pcDNA3.1+ vector was obtained from the cDNA resource center (cdna.org). The Nluc and HaloTag in-serts were amplified with overhanging restriction sites from β2AAR- HaloTag/Nluc and ligated to the full-length C-terminus or inserted into icl3 of GPR3, respectively, to obtain the conformational biosensor GPR3-HaloTag/Nluc. Point mutants of GPR3-HaloTag/Nluc were generated using the GeneArt Site-directed Mutagenesis System (Thermo Fisher Scientific). All con-structs were verified by sequencing (Eurofins genomics).
Poly-D-lysine, polyethylenimin hydrochloride (linear; average Mn 20 000; PEI) , […], LPA , forskolin, NECA and bovine serum albumin (BSA) were obtained from Sigma Aldrich (Merck KGaA). Dulbecco's Modified Eagle's Medium (DMEM), Dul-becco's Phosphate -Buffered Saline (DPBS) and G -418 (Geneticin) were from Gibco. Diphenyleneiodonium chloride (DPI) and AF64394 were purchased from Tocris (Bio -Techne). The TMB (3, 3', 5, 5' tetramethyl benzidine) substrate reagent set was from BioLegend. The Nluc substrate furimazine and the red fluorescen t HaloTag dye, HaloTag® NanoBRET® 618 Ligand, were obtained in a single kit from Promega (cat. no. N1662). D-luciferin-sodium and the S1PR1 agonist III were from Med-ChemExpress. The Rluc substrate coelenterazine 400a was from NanoLight Technology (cat. no. 340 -10). White -wall, white - bottomed 96 -well, black -wall, black bottomed and transparent 96 -well microtiter plates were from Brand.
HEK293A cells were used for transient transfection and grown in Dulbecco’s modified Eagle’s medium (DMEM) supplemented with 2 mM glutamine, 10 % fetal calf serum, streptomycin (0.1 mg/mL), and penicillin (100 U/mL) at 37 °C with 5 % CO2. […]
Transient transfection and plating
Resuspended cells (300,000 cells/mL) were transfected in suspension with a total of 1 μg DNA/mL suspension using PEI (1 mg/ml stock solution; 3 μL PEI solution per μg DNA). For cAMP experiments with FRET- or BRET-based sensors, resuspended cells were transfected with 500 ng pcDNA, wildtype GPR3 or GPR3-HaloTag/Nluc constructs along with 500 ng of the FRET-or BRET-based cAMP sensor per mL cell suspension. For cAMP experiments with GloSensor™ 22F, resuspended cells were transfected with 250 ng pcDNA or GPCR along with 500 ng of a 1:1 mix of pcDNA with the GloSensor™ 22F per mL cell sus-pension. Cells mixed with the transfection reagents were seeded onto poly-D-lysine–precoated, 96-well plates and grown for 48 h at 37 °C with 5 % CO2. Stable α2AAR-, β2AR- or GPR3-HaloTag/Nluc expressing cells were seeded 24 h before the experi-ment at a density of 800,000 cells/mL into white 96-well plates. To monitor changes in BRET in with conformational GPCR […]

[1] = 30 μM pretreatment, cells coexpressing GPR3

T1 sequence (P46089 whole entry): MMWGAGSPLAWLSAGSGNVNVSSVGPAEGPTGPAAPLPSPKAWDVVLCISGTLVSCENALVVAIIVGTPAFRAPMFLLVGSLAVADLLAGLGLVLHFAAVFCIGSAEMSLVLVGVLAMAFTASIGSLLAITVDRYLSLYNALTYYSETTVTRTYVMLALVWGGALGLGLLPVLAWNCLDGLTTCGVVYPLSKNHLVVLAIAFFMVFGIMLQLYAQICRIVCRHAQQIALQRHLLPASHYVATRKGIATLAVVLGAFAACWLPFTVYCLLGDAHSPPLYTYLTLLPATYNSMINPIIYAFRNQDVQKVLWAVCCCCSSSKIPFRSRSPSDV

| SMILES | effect of pretreatment on AF64394 response in cAMP assay [1] | effect of pretreatment on DPI-induced cAMP generation [1] | GPR3-dependent change in cAMP |
| --- | --- | --- | --- |
| N=c1n(Cc2ccccc2)c2ccccc2n1CC1CC1 [compound 33] | no effect on the effect of AF64394 | inhibited DPI-induced cAMP generation | – |
| N=c1n(Cc2ccccc2)c2ccccc2n1CC(O)COc1ccc(Cl)cc1 (stereo not shown) [compound 52] | – | – | induced GPR3-dependent changes in cAMP concentrations |
| Cc1ccc(NC(=O)CN2CCN(C(=O)CCc3ccc(Cl)cc3)CC2)cc1 [compound 115] | – | – | modulates the conformation of GPR3 but not GPR3-dependent cAMP production |
